Results reported in ChEMBL document CHEMBL4513134, “CO-ADD screening of University of Queensland (Australia) compounds” (2021).

How the values were obtained:
HEK293 = test: cells; format: functional, Homo sapiens, ATCC CRL1573; settings: Homo sapiens, ATCC CRL1573, HEK293; ASSAY_TEST Inhibition of Cell Viability; detection method Resazurin; Fluorescence (ex560/em590); MEDIA DMEM with 10% FBS; plate type 384well; TC; CORNING #3712; time 18 hr; read-out: CC50
Acinetobacter baumannii = test: microbe, parasite or virus in culture; settings: ATCC 19606, 18 h, ASSAY_TEST Inhibition of Bacterial Growth, detection method Absorption (OD600), MEDIA CAMHB, plate type 384well, NBS, CORNING #3640
Description: Antibacterial activity against Acinetobacter baumannii ATCC 19606 (CO-ADD:GN_034); MIC in CAMBH media using NBS plates, by OD600

Candida albicans = test: microbe, parasite or virus in culture; settings: ATCC 90028, ASSAY_TEST Inhibition of Fungal Growth, detection method Absorption (OD530), plate type 384well, NBS, CORNING #3640
Description: Antifungal activity against Candida albicans ATCC 90028 (CO-ADD:FG_001); MIC in YNB media using NBS plates, by OD630

Escherichia coli = test: microbe, parasite or virus in culture; settings: ATCC 25922, 18 h, ASSAY_TEST Inhibition of Bacterial Growth, detection method Absorption (OD600), MEDIA CAMHB, plate type 384well, NBS, CORNING #3640
Description: Antibacterial activity against Escherichia coli ATCC 25922 (CO-ADD:GN_001); MIC in CAMBH media using NBS plates, by OD(600)

Klebsiella pneumoniae = test: microbe, parasite or virus in culture; settings: ATCC 700603, 18 h, ASSAY_TEST Inhibition of Bacterial Growth, detection method Absorption (OD600), MEDIA CAMHB, plate type 384well, NBS, CORNING #3640
Description: Antibacterial activity against Klebsiella pneumoniae MDR ATCC 70063 (CO-ADD:GN_003); MIC in CAMBH media using NBS plates, by OD(600)

Staphylococcus aureus = test: microbe, parasite or virus in culture; settings: ATCC 43300, 18 h, ASSAY_TEST Inhibition of Bacterial Growth, detection method Absorption (OD600), MEDIA CAMHB, plate type 384well, NBS, CORNING #3640
Description: Antibacterial activity against Staphylococcus aureus MRSA ATCC 43300 (CO-ADD:GP_020); MIC in CAMBH media, using NBS plates, by OD(600)

Pseudomonas aeruginosa = test: microbe, parasite or virus in culture; settings: ATCC 27853, 18 h, ASSAY_TEST Inhibition of Bacterial Growth, detection method Absorption (OD600), MEDIA CAMHB, plate type 384well, NBS, CORNING #3640
Description: Antibacterial activity against Pseudomonas aeruginosa ATCC 27853 (CO-ADD:GN_042); MIC in CAMBH media using NBS plates, by OD(600)

Description for Cryptococcus neoformans: Antifungal activity against Cryptococcus neoformans H99 ATCC 208821 (CO-ADD:FG_002); MIC in YNB media using NBS plates, by Resazurin OD(600-570)

Cn1c([N+](=O)[O-])cnc1C(=O)OC1CCCCC1
> 32 µg/mL: CC50 (HEK293) | MIC (Acinetobacter baumannii) | MIC (Cryptococcus neoformans) | MIC (Candida albicans) | MIC (Escherichia coli) | MIC (Klebsiella pneumoniae) | MIC (Staphylococcus aureus) | MIC (Pseudomonas aeruginosa)

Cn1c([N+](=O)[O-])cnc1C(=O)NC1CCCCC1
> 32 µg/mL: CC50 (HEK293) | MIC (Acinetobacter baumannii) | MIC (Cryptococcus neoformans) | MIC (Candida albicans) | MIC (Escherichia coli) | MIC (Klebsiella pneumoniae) | MIC (Staphylococcus aureus) | MIC (Pseudomonas aeruginosa)

CN(Cc1ccccc1)C(=O)c1ncc([N+](=O)[O-])n1C
> 32 µg/mL: CC50 (HEK293) | MIC (Acinetobacter baumannii) | MIC (Cryptococcus neoformans) | MIC (Candida albicans) | MIC (Escherichia coli) | MIC (Klebsiella pneumoniae) | MIC (Staphylococcus aureus) | MIC (Pseudomonas aeruginosa)
